Assay results as given in US11440932B2, “Surfactant compounds-clips for extraction and stabilization in solution of membrane proteins” (CENTRE NATIONAL DE LA RECHERCHE SCIENTIFIQUE, priority 2017, dated 2022).

What was measured:
AcrB = target: T1, AcrB (Escherichia coli, UniProt P31224); experiment: Extraction of AcrB from membranes (SDS-PAGE of supernatant); set-up: species or system bacterial; same expression system (E. coli C41DE3); settings: detergent 10 g/l unless indicated otherwise; 2 h at 4° C.
T1 construct: made in house; host or cells: E. coli C41(DE3)
Procedure: (§1) FIG. 6 depicts the extraction of the membrane proteins BmrA (panels A and C) and AcrB (panels B and D) using commercial detergents and the molecules of the invention (panels A and B, from left to right): SDS, DDM, FC12, TX100, compounds of the invention 1.4, 1.5, 2.3a, 2.3b, 2.3c, 2.3d, 2.3e, 2.3f, 2.3g, 2.3h, 2.3i, 3.7a, 3.7b; panel C: compounds of the invention 3.7c 0.8%, 3.7d 0.16%, 3.7e 0.8%, 3.7f 0.3%, 3.7g 0.4%, 3.7h 0.2%, 3.7i 0.07%, 3.7j 0.09%, 3.7k, 3.7l, 0.25%, 3.9a, 4.5a, 4.5b, 4.5c, 4.5d 0.34%, 4.6a, 4.6b, 4.6c, 4.6d, 5.3a, 5.3b, 5.3c 0.3%, 5.3d 0.3%; panel D: 3.7c, 3.7d, 3.7e, 3.7f, 3.7h, 3.7i 0.1%, 3.7j, 3.7k, 3.7l, 3.9a, 4.5a, 4.5b, 4.5c, 4.5d, 4.6a, 4.6b, 4.6c, 4.6d. The detergents are added at 10 g/l (1%), unless indicated otherwise. The equivalent of 20 μg of proteins of the extracted fraction after centrifugation at 100 000×g for 30 min is deposited on 10% SDS-PAGE, stained with Coomassie blue after migration. BmrA migrates in its monomeric form to the level of the 55 kDa band; AcrB migrates in its monomeric form to the level of the 100 kDa band. SDS=sodium dodecyl sulfate; DDM=β-D-dodecyl maltoside; FC12=foscholine-12; TX100=triton X-100.
(§2) The extraction capacity of the detergents of the series is tested on membranes in which BmrA or AcrB are strongly expressed. The extraction with the clips (molecules of the invention) is compared to that obtained with commercial detergents, used as reference.
(§3) Procedure. BmrA represents 25% of the proteins present in the overexpression system used (E. coli, C41DE3). These membranes are prepared as described previously (Matar-Merheb, R. et al. ([11])). The membranes containing AcrB (approximately 20% of the membrane proteins, same expression system as BmrA) were prepared as described previously (Seeger, M. A. et al. ([21])). The detergents are used at 10 g/l unless indicated otherwise, and the proteins diluted at 2 g/l in a 20 mM Tris-HCl buffer, pH 8.0, 100 mM NaCl, 15% glycerol, with protease inhibitors (Roche) added thereto at an amount of one tablet/100 ml. The mixture (T) is incubated for 2 h at 4° C. then centrifuged for 1 h at 4° C. at 100 000×g in order to separate the extracted fraction (supernatant, S) from that which is not extracted (pellet). The supernatants are deposited on 10% SDS-PAGE and stained with Coomassie blue after migration. The foscholine 12, DDM and LMNG originate from Anatrace, the SDS and Triton X100 originate from Sigma-Aldrich.

[1] = Diameter of micelles by dynamic light scattering (DLS); format: physicochemical; settings: estimated micelle diameter by DLS; 30 mM tris-HCl, pH 8.0
Procedure: FIG. 5 depicts the dynamic light scattering (DLS) of clips, in intensity (%, column A on the left) and in number (%, column B on the right), as a function of the […] (nm). The estimated diameters are indicated on each panel (column A). Columns A and B, from top to bottom: compound 3.7c (10 mM, 5×CMC), compound 3.7d (10 mM, 5×CMC), compound 3.7e (2 mM, […]), compound 3.7f (10 mM, 500×CMC), compound 3.7h (1 mM, 100×CMC), compound 3.7j (2 mM, 100×CMC), compound 3.9a (1 mM, 50×CMC).
Another physicochemical parameter of the micelles of detergents is their diameter, assuming that they are spherical. This dimension is obtained by the light scattering (DLS) technique.
Procedure. The molecules of the invention tested were prepared in a range of concentrations extending from 0.1 to 1000×CMC in 30 mM tris-HCl, pH 8.0 and neutralized at this pH. The solutions are filtered on 0.22 μm. The measurement is carried out on 100 μl, in triplicate on a Zetasizer Nano-S from Malvern Instruments.

BmrA [2] = target: T2, BmrA (Bacillus subtilis, UniProt O06967); experiment: Extraction of BmrA from membranes (SDS-PAGE of supernatant); set-up: species or system bacterial; overexpressed in E. coli C41DE3; settings: detergent 10 g/l unless indicated otherwise; 2 h at 4° C.
T2 construct: His tag; made in house; host or cells: E. coli C41(DE3)
Procedure: as §1, §2, §3

[3] = Critical micelle concentration (CMC) by DPH fluorescence; format: physicochemical; settings: 50 mM tris-HCl, pH 8.0
Procedure: FIG. 4 represents the fluorescence (%) of DPH (1,6-diphenyl-1,3,5-hexatriene) in the presence of increasing concentrations (0.0001 mM, 0.001 mM, 0.01 mM, 0.1 mM, 1 mM and 10 mM) of clips (compounds of the invention), exemplified with the compounds #3.7e (C13, points represented by squares) and 3.7f (C18, points represented by circles). The experiment is carried out in triplicates. In accordance with Chattopadhyay, A. & London, E ([22]), the CMC corresponds to the concentration at which the breakage in the slope is observed, here at 20 μM for 3.7f and 2 mM for 3.7e (black symbols).
Procedure. The molecules of the invention were prepared in a range of concentrations extending from 0.1 μM to 10 mM in 50 mM tris-HCl, pH 8.0 and neutralized at this pH. To 80 μl of each solution (triplicate), the same volume of 10 μM of 1,6-diphenyl-1,3,5-hexatriene (DPH, Sigma, D208000) is added, prepared at 100 μM in tetrahydrofuran then diluted 10-fold in H2O. The increase in the fluorescence of the DPH occurs when the latter find micelles of clips into which it can insert itself (Chattopadhyay, A. & London, E. Fluorimetric determination of critical micelle concentration avoiding interference from detergent charge. Anal Biochem 139, 408-412 (1984) ([22])). The fluorescence is read with a Xenius SAFAS fluorimeter by exciting at 358 nm and recording the fluorescence emission at 430 nm, with slits of 9 to 10 nm for the excitation and the emission and a gain of 100 to 150, depending on the cases.
Results. The CMC of the detergents is the concentration starting from which they associate with one another to form micelles, in which, in aqueous solution, the hydrophobic portions are grouped together at the center and the hydrophilic regions are exposed to the solvent. […] A typical result obtained with a compound 3.7 provided with a C13 (3.7e) or C18 ([…]) aliphatic chain is illustrated in FIG. 4.

BmrA [4] = target: T2, BmrA; experiment: Size exclusion chromatography of BmrA after detergent exchange; settings: Superdex 200 5/150, 2 CMC of detergent, 0.3 ml/min
Procedure: The membrane fraction was extracted and purified in DDM by Ni-NTA metal affinity and Superdex 200 size exclusion, before being reloaded on Ni-NTA in order to exchange the DDM either with itself or with the compound 3.7c. Each pool was subsequently loaded onto a 3 ml Superdex S200 5/150 size exclusion column and eluted in the presence of 2 CMC of the same detergent, as indicated. The proteins are detected by absorbance at 280 nm.
The capacity of the compounds of the invention to maintain the membrane proteins in a native state was exemplified with the compound 3.7c of the invention, monitored by size exclusion chromatography and compared to the reference detergent DDM.
Procedure: BmrA was extracted in DDM and purified by Ni-NTA affinity chromatography as described in example 13, then loaded onto a Superdex 200 10/300 size exclusion column and eluted with 50 mM Hepes-HCl pH 8.0, 100 mM NaCl, 0.4 mM DDM (2×CMC). The fractions containing BmrA were pooled and separated into several aliquots (˜100 μg) kept at 4° C. One aliquot was subsequently reloaded onto an affinity column containing 1 ml of resin. The DDM was then exchanged against 10 volumes of Hepes-NaCl buffer containing either 2 CMC of DDM (control experiment) or 2 CMC of compound 3.7c (2 mM). BmrA was subsequently eluted in the respective buffers with 100 mM of imidazole added. The fractions containing the proteins were combined and concentrated on 50 kDa amicon (regenerated cellulose) to 50 μl, and were then deposited on a 3 ml Superdex 200 5/150 size exclusion column, equilibrated in 50 mM Hepes-HCl pH 8.0, 100 mM NaCl, and 2 CMC of DDM (0.4 mM) or 3.7c (2 mM). The elution was subsequently carried out at 0.3 ml/min in the respective buffers and the BmrA detected at 280 nm.

T2 sequence (O06967 whole entry): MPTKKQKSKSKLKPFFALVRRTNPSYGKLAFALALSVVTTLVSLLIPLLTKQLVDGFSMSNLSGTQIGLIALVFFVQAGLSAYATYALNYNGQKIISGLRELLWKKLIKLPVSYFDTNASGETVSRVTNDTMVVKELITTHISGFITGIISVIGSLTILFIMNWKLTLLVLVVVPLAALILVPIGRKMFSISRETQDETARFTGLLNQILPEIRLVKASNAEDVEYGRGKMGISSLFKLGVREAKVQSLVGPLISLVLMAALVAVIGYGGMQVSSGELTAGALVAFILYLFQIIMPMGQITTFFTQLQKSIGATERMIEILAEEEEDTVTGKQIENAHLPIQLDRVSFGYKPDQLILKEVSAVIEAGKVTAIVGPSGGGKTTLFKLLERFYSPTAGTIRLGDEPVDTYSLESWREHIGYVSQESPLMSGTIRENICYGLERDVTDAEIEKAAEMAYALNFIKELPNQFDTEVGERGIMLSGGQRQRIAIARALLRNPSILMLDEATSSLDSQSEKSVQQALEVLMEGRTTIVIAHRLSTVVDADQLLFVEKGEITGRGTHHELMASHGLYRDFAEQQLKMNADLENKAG
T1 sequence (P31224 whole entry): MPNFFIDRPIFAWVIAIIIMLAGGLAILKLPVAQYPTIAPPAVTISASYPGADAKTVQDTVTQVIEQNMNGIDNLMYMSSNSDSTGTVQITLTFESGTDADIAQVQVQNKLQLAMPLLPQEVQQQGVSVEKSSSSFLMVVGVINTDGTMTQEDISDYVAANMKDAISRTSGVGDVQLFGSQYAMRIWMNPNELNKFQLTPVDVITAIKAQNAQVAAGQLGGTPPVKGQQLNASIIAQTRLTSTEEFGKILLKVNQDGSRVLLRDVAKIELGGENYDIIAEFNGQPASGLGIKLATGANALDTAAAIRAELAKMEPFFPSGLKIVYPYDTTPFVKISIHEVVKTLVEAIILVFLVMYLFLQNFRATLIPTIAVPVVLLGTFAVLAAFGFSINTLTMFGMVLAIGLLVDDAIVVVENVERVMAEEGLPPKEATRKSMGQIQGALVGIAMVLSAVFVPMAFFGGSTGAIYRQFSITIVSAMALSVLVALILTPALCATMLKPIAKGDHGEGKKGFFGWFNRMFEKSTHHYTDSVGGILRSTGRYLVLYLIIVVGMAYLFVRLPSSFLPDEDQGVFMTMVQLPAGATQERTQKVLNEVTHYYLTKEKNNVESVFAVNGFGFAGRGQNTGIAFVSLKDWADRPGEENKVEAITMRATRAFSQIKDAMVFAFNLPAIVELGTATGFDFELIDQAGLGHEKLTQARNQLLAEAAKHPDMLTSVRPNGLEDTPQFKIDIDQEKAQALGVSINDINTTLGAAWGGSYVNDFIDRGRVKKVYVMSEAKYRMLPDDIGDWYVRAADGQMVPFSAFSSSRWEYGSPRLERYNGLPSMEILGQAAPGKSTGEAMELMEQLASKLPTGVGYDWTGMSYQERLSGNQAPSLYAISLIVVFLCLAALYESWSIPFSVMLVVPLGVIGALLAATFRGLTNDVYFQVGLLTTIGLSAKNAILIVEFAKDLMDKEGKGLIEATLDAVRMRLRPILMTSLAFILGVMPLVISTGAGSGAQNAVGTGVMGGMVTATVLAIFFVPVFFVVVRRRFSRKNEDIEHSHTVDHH

## CCCCCCCCCCCCCCCCCCC(=O)N[C@@H](COCc1cn(CCOCCOCCOCCOCCOCCOC)nn1)C(=O)N[C@H](CCC(=O)O)C(=O)O [Compound 3.7h]
AcrB
  extraction of AcrB: extracting
[1]
  Ø, nm: 3-4 nm
BmrA [2]
  extraction of BmrA: extracting
[3]
  CMC: 0.01 mM

## CCCCCCCCCCCCCCCCCCC(=O)N[C@@H](COCc1cn(CCO[C@@H]2OC(CO)[C@@H](O)C(O)C2O)nn1)C(=O)N[C@H](CCC(=O)O)C(=O)O (some centres unmarked) [Compound 3.7d]
AcrB
  extraction of AcrB: extracting
[1]
  Ø, nm: 5.5 nm
BmrA [2]
  extraction of BmrA: partially extracting
[3]
  CMC: 0.02 mM

## CCCCCCCCCCCCO[C@@H]1O[C@H](CO)[C@@H](O[C@H]2O[C@H](CO)[C@@H](O)[C@H](O)[C@H]2O)[C@H](O)[C@H]1O [DDM, n-dodecyl β-d-maltoside, reference compound]
AcrB
  extraction of AcrB: solubilize
BmrA [4]
  elution volume of BmrA: ~1.6 mL
BmrA [2]
  extraction of BmrA: solubilize
